Series [1] is described as follows: Photoovicidal activity against Drosophila melanogaster egg pretreated 1 hr before UV light irradiation for 45 mins by paper disk method. The series is classed as ADME. To be noted: 0.75 h.
The next series relates to Escherichia coli. The series is described as follows: Phototoxicity against Escherichia coli B. The series is classed as functional, organism-based.
In the next series the test system is Saccharomyces cerevisiae. The series is described as follows: Phototoxicity against Saccharomyces cerevisiae. The series is classed as functional, organism-based.
In a further series the test system is Cyberlindnera jadinii. The series is described as follows: Phototoxicity against Candida utilis. The series is classed as functional, organism-based.
Another series concerns Drosophila melanogaster. The series is described as follows: Phototoxicity against Drosophila melanogaster larvae. In kind it is functional, organism-based.
The test system of another series is Aedes aegypti. The experiment in a line: Phototoxicity against Aedes aegypti larvae. The series is classed as functional, organism-based.
Series [2] is described as follows: Ovicidal activity against Drosophila melanogaster egg by paper disk method. The series is classed as ADME.
A short description of series [3]: Ratio of ID50 for Drosophila melanogaster egg to ID50 for Drosophila melanogaster egg irradiated with UV light for 45 mins. The series is classed as ADME.
Series [4] is described as follows: Increase in ovicidal activity against Drosophila melanogaster egg incubated in dark by paper disk method. In kind it is ADME.

Active and inactive are the calls of the source. The calls are words filed in the database; no cut-off is given here.

As to `CC#Cc1ccc(-c2ccccc2)s1`, the values for the LD50 in series [1] and in [2] were 0.013 microg/cm2 and 2.9 microg/cm2, respectively. Besides, the outcome with Escherichia coli, in the series on Saccharomyces cerevisiae, in the series on Cyberlindnera jadinii, in the series on Drosophila melanogaster and in the series with Aedes aegypti was Active. The selectivity ratio at 0.75 h in series [3] was 225. The Activity result in [4] is on record as “Not Active”.

Consider `C#Cc1ccc(-c2ccccc2)s1`, for which the LD50 in series [1] was found to be 0.025 microg/cm2; in series [2] it was 4.6 microg/cm2. For the same compound, the result with Escherichia coli, with Saccharomyces cerevisiae, with Cyberlindnera jadinii, in the series on Drosophila melanogaster and with Aedes aegypti was Active. Moreover, the selectivity ratio at 0.75 h in [3] was found to be 200. The Activity result in series [4] is recorded as “Not Active”.

For the compound `O=c1ccc2ccccc2o1` [COUMARIN], in series [2], the LD50 amounted to 23 microg/cm2.

The values are drawn from ChEMBL document CHEMBL1145668, “The Effect of Ultraviolet Light on the Toxicity of Natural Products Toward the Eggs of Drosophila melanogaster” (J Nat Prod, 1983).
